Measured values: US6692753B2, “Potentiation of the immune response” (priority 1997, dated 2004)
Entries after “also recorded” stand apart in the source; their conditions may differ.

Tests used:
[1] = test system: PBMC from HIV-infected individuals; assay: Proliferation of PBMC from HIV-infected individuals, 3H thymidine incorporation; assay type: cell-based, human; settings: for stimulation of proliferation: higher doses (10^−4M), PBMC of HIV-infected patients; for stimulation of proliferation (incorporation of 3H thymidine, cpm): very low / low doses, PBMC from HIV-infected patients, in vitro
From the text: If desired, additional in vitro assays can be carried out using candidate compounds of the invention, prior to their use in vivo. One such assay employs the candidate compound at a very low concentration, in a test designed to determine whether at low concentrations the compound can stimulate the proliferation of PBMC from HIV infected patients in vitro. As is shown in the data of FIG. 4, stimulation can be measured by, e.g., incorporation of a labelled nucleotide. Peripheral blood mononuclear cells (PBMC) were obtained by standard methods from HIV-infected individuals, and from uninfected individuals. Varying dosages of KBP or VBP were contacted with the PBMC in vitro, and stimulation of proliferation was measured by incorporation of ^3H thymidine (cpm).

[2] = test system: CD4/CD8+ T cells; assay: Cell death of purified resting T-cells, 7AAD flow cytometry; assay type: cell-based, human; settings: overnight incubation, 10^−4M or 10^−6M
Experimental: CD19+B cells and CD4/CD8+ T cells were isolated (>90% and >97% purity, respectively). The cells were then incubated overnight in the presence or absence of VBP (10^−4M or 10^−6M). The amount of death induced by VBP treatment was determined by 7AAD flow cytometry analysis. The data represents the mean percent of death from duplicate samples.
The amount of cell death was determined by 7AAD flow cytometry analysis. Data represent % of cell death from duplicate samples.

[3] = test system: CD26+ and CD26− PBMC populations; assay: Cell death of sorted CD26+ and CD26− PBMC populations, 7AAD flow cytometry; assay type: cell-based, human; settings: overnight, various (moderate) concentrations
Experimental: PBMC were stained with the anti-CD26 monoclonal antibody, 4 EL, and then sorted into CD26^+ and CD26^− populations using a facstar plus dual lasar flow cytometry. The cells expressing the highest level )top 5%) of CD26 and the cells expressing the lowest level (bottom 10%) of CD26 were isolated as the CD26^+ and CD26^− populations respectively. […] The CD26^+ and CD26^− populations were cultured overnight in the presence or absence of various concentrations of VBP. The amount of death induced by VBP treatment was determined by 7AAD flow cytometry analysis. Data represent mean percent of death from duplicate samples +/−SD.
The amount of cell death was determined by 7AAD flow cytometry analysis. Data represent mean % of death from duplicate samples.

[4] = test system: cytoplasmic T-cell enzyme (post-prolyl dipeptidase) in Jurkat T-cell cytoplasmic extract; assay: Enzymatic activity of Jurkat T-cell cytoplasmic extract, fluorescent cleavage of Ala-ProAFC; assay type: biochemical, human; settings: varying concentrations
Experimental: A suitable enzyme-containing cell extract can be prepared as follows. First, Jurkat cells (10^6-10^11 cells) are grown and a cell pellet is obtained by centrifugation. The cell pellet is stored in frozen condition.
For use in the assay, the frozen pellet is thawed by the addition of ice cold lysis buffer, in the amount of approximately 1 ml per 10^8 cells. The liquified material is homogenized with ten strokes of a Dounce homogenizer, and then clarified by centrifugation at 1500 g. The supernatant is removed (and saved), and the 1500 g. pellet is resuspended in lysis buffer and homogenized with ten strokes of a Dounce homogenizer. Clarification is again carried out by centrifugation at 1500 g, 4° C.
The 1500 g supernatants are then combined, and EDTA is added to 5mM. The resultant liquid is centrifuged at 75,000 g at 4° C. for twenty minutes, and the supernatant is then removed and centrifuged at 175,000 g. at 4° C., for 60 minutes. […]
In the assay we carried out, we employed a fluorescence spectrometer for excitation at 400 nm and emission at 505 nm. […]
In the test samples, multiple samples are run containing varying concentrations, down to 10^−8 M, of the test compound. […] Enzymatic activity is measured as the accumulation of fluoresence intensity (i.e., substrate cleavage product) over time (1 min.).

| Compound | stimulation of proliferation [1] | stimulation of proliferation (incorporation of 3H thymidine, cpm) [1] | cell death / apoptosis (7AAD) [2] | cell death / apoptosis (7AAD) ([2]; listed as VBP) | cell death / apoptosis (7AAD) [3] | cell death / apoptosis (7AAD) ([3]; listed as VBP) | inhibition of enzymatic activity (AFC release from Ala-ProAFC) [4] | inhibition of enzymatic activity (AFC release from Ala-ProAFC) ([4]; listed as val-boroPro) |
| --- | --- | --- | --- | --- | --- | --- | --- | --- |
| NCCCC[C@H](N)C(=O)N1CCC[C@H]1B(O)O [Lys-boroPro] | do not have this effect | stimulated proliferation; also recorded: cause proliferation | – | – | – | – | – | – |
| CC(C)[C@H](N)C(=O)N1CCC[C@H]1B(O)O [Val-boroPro] | do not have this effect | stimulated proliferation; also recorded: cause proliferation | highly sensitive | dose-dependent apoptosis | equally susceptible | dose-dependent apoptosis in both CD26^+ and CD26^− populations; also recorded: equally susceptible | inhibited | inhibited the cytoplasmic enzyme |
